Measurements: patent publication US12344603B2 (Genentech, Inc., priority 2020, dated 2025)
pIC50: −log10 of the molar value.

target: IRE1α (Homo sapiens (Human), UniProt O75460, D688N); experiment: IRE1α TR-FRET competition binding assay (IRE1α HTRF); settings: TR-FRET competition binding to kinase domain of IRE1α
Summary of the method: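 Competition of compounds against an Alexa fluor 647 ATP-site probe (2 nM final) for the His-tagged kinase domain (0.25 nM final), detected via 2 nM Eu anti-His antibody by TR-FRET, 665 and 615 nm emission. Protein–antibody premix 1 h, 4° C; reaction 1 h, room temperature, pH 7.5 HEPES buffer.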

Sequence of IRE1α (O75460 547-977 D688N): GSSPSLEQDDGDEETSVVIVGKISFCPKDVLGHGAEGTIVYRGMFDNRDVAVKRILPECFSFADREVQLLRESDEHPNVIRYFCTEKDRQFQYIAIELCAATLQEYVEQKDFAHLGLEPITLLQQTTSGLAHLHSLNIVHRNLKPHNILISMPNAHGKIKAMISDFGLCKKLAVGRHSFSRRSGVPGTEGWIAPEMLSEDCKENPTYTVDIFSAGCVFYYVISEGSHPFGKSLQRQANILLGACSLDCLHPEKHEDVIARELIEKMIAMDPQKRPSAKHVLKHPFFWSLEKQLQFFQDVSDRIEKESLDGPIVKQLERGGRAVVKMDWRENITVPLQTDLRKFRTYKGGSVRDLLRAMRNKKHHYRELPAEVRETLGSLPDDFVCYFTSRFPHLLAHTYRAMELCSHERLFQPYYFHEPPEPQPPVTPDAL

Row | SMILES | pIC50
1 | CCC(F)(F)CS(=O)(=O)Nc1c(F)cc(-c2cc3cnc(N[C@H]4CC[C@H](N(C)C)CC4)nc3n(C(C)C)c2=O)c(F)c1F [Compound 36, N-(4-(2-(((1r,4r)-4-(Dimethylamino)cyclohexyl)amino)-8-isopropyl-7-oxo-7,8-dihydropyrido[2,3-d]pyrimidin-6-yl)-2,3,6-trifluorophenyl)-2,2-difluorobutane-1-sulfonamide] | 9.74
2 | COCCN(C)[C@H]1CC[C@H](Nc2ncc3cc(-c4ccc(NS(=O)(=O)CCC(F)(F)F)c(F)c4)c(=O)n(C(C)C)c3n2)CC1 [Compound 138, 3,3,3-Trifluoro-N-(2-fluoro-4-(8-isopropyl-2-(((1r,4r)-4-((2-methoxyethyl)(methyl)amino)cyclohexyl)amino)-7-oxo-7,8-dihydropyrido[2,3-d]pyrimidin-6-yl)phenyl)propane-1-sulfonamide] | 9.72
3 | CC(C)n1c(=O)c(-c2ccc(NS(=O)(=O)CC3CCCC3)c(F)c2)nc2cnc(N[C@H]3CC[C@H](N(C)C)CC3)nc21 [Example 267, 1-Cyclopentyl-N-[4-[2-[[4-(dimethylamino)cyclohexyl]amino]-8-isopropyl-7-oxo-pteridin-6-yl]-2-fluoro-phenyl]methanesulfonamide] | 10.00
4 | CC(C)n1c(=O)c(-c2ccc(NS(=O)(=O)CCC(F)(F)F)c(F)c2)cc2cnc(N[C@H]3CC[C@H](N(C)C4COC4)CC3)nc21 [Compound 206, 3,3,3-Trifluoro-N-(2-fluoro-4-(8-isopropyl-2-(((1,4-trans)-4-(methyl(oxetan-3-yl)amino)cyclohexyl)amino)-7-oxo-7,8-dihydropyrido[2,3-d]pyrimidin-6-yl)phenyl)propane-1-sulfonamide] | 9.77
5 | CC(C)n1c(=O)c(-c2ccc(NS(=O)(=O)CCC(F)(F)F)c(F)c2)cc2cnc(NC3CCC(N(C)C)C(F)C3)nc21 (single isomer, unassigned) [Compound 110B, N-(4-(2-((4-(Dimethylamino)-3-fluorocyclohexyl)amino)-8-isopropyl-7-oxo-7,8-dihydropyrido[2,3-d]pyrimidin-6-yl)-2-fluorophenyl)-3,3,3-trifluoropropane-1-sulfonamide] | 9.15
6 | CC(C)n1c(=O)c(-c2ccc(NS(=O)(=O)c3ccccc3C#N)nc2)cc2cnc(N[C@H]3CC[C@H](N(C)CCF)CC3)nc21 [Compound 148, 2-Cyano-N-(5-(2-(((1r,4r)-4-((2-fluoroethyl)(methyl)amino)cyclohexyl)amino)-8-isopropyl-7-oxo-7,8-dihydropyrido[2,3-d]pyrimidin-6-yl)pyridin-2-yl)benzenesulfonamide] | 9.64
7 | Cc1nc(NS(=O)(=O)c2ccccc2Cl)ccc1-c1nc2cnc(N[C@H]3CC[C@H](N(C)CCF)CC3)nc2n(C(C)C)c1=O [Compound 195, 2-Chloro-N-(5-(2-(((1r,4r)-4-((2-fluoroethyl)(methyl)amino)cyclohexyl)amino)-8-isopropyl-7-oxo-7,8-dihydropteridin-6-yl)-6-methylpyridin-2-yl)benzenesulfonamide] | 9.54
8 | CC(C)Nc1ncc2cc(-c3cc(F)c(NS(=O)(=O)CCC(F)(F)F)c(F)c3F)c(=O)n(C(C)C)c2n1 [Compound 21, 3,3,3-Trifluoro-N-(2,3,6-trifluoro-4-(8-isopropyl-2-(isopropylamino)-7-oxo-7,8-dihydropyrido[2,3-d]pyrimidin-6-yl)phenyl)propane-1-sulfonamide] | 7.80
9 | CC(C)n1c(=O)c(-c2ccc(NS(=O)(=O)CCC(F)(F)F)c(F)c2)cc2cnc(N[C@H]3CCC[C@H](N)C3)nc21 [Compound 103, N-(4-(2-(((1S,3S)-3-Aminocyclohexyl)amino)-8-isopropyl-7-oxo-7,8-dihydropyrido[2,3-d]pyrimidin-6-yl)-2-fluorophenyl)-3,3,3-trifluoropropane-1-sulfonamide] | 7.59
10 | CC(C)n1c(=O)c(-c2cc(F)c(NC(=O)CC3CCC3)c(F)c2F)cc2cnc(N[C@H]3CC[C@H](N(C)C)CC3)nc21 [Compound 62, 2-Cyclobutyl-N-(4-(2-(((1r,4r)-4-(dimethylamino)cyclohexyl)amino)-8-isopropyl-7-oxo-7,8-dihydropyrido[2,3-d]pyrimidin-6-yl)-2,3,6-trifluorophenyl)acetamide] | 8.66
11 | CC(C)n1c(=O)c(-c2cc(F)c(NC(=O)[C@@H]3C[C@@H]3F)c(F)c2F)cc2cnc(N[C@H]3CC[C@H](N(C)C)CC3)nc21 [Compound 96, (1S,2S)—N-(4-(2-(((r,4r)-4-(dimethylamino)cyclohexyl)amino)-8-isopropyl-7-oxo-7,8-dihydropyrido[2,3-d]pyrimidin-6-yl)-2,3,6-trifluorophenyl)-2-fluorocyclopropane-1-carboxamide] | 8.80
12 | CC(C)n1c(=O)c(-c2cc(F)c(NS(=O)(=O)Cc3ccn(CC(F)(F)F)n3)c(F)c2F)cc2cnc(N[C@@H]3CNC[C@@H](F)C3)nc21 [Compound 158, N-(2,3,6-Trifluoro-4-(2-(((3S,5S)-5-fluoropiperidin-3-yl)amino)-8-isopropyl-7-oxo-7,8-dihydropyrido[2,3-d]pyrimidin-6-yl)phenyl)-1-(1-(2,2,2-trifluoroethyl)-1H-pyrazol-3-yl)methanesulfonamide] | 9.24

Continued, values first:

Row | pIC50 | SMILES
13 | 9.52 | CC(C)n1c(=O)c(-c2ccc(NS(=O)(=O)CCC(F)(F)F)nc2)cc2cnc(N[C@H]3CC[C@H](N(C)C)CC3)nc21 [Example 215, N-(5-(2-(((1r,4r)-4-(dimethylamino)cyclo-hexyl)amino)-8-isopropyl-7-oxo-7,8-dihydropyrido[2,3-d]-pyrimidin-6-yl)pyridin-2-yl)-3,3,3-trifluoro-propane-1-sulfonamide]
14 | 9.70 | CC(C)n1c(=O)c(-c2ccc(NS(=O)(=O)C3CC4(CCC4)C3)c(F)c2)nc2cnc(N[C@H]3CC[C@H](N(C)C)CC3)nc21 [Example 277, N-[4-[2-[[4-(Dimethylamino)cyclohexyl]amino]-8-isopropyl-7-oxo-pteridin-6-yl]-2-fluoro-phenyl]spiro[3.3]heptane-2-sulfonamide]
15 | 9.70 | CC(C)n1c(=O)c(-c2ccc(NS(=O)(=O)CCC(F)(F)F)c(F)c2)cc2cnc(NC3CCC4(CC3)CN(C)C4)nc21 [Example 221, 3,3,3-Trifluoro-N-(2-fluoro-4-(8-isopropyl-2-((2-methyl-2-azaspiro[3.5]nonan-7-yl)amino)-7-oxo-7,8-dihydropyrido[2,3-d]pyrimidin-6-yl)phenyl)propane-1-sulfonamide]
16 | 10.00 | CC[C@H](C)n1c(=O)c(-c2ccc(NS(=O)(=O)CCC(F)(F)F)c(F)c2)cc2cnc(N[C@H]3CC[C@H](N(C)C)CC3)nc21 (single isomer, unassigned) [Compound 203A]
17 | 10.00 | CC(C)n1c(=O)c(-c2ccc(NS(=O)(=O)CC3CCC3(F)F)c(F)c2)nc2cnc(N[C@H]3CC[C@H](N(C)C)CC3)nc21 (mixture of isomers) [Example 263, 1-(2,2-Difluorocyclobutyl)-N-[4-[2-[[4-(dimethylamino)cyclohexyl]amino]-8-isopropyl-7-oxo-pteridin-6-yl]-2-fluoro-phenyl]methanesulfonamide]
18 | 9.70 | CC(C)n1c(=O)c(-c2ccc(NS(=O)(=O)CCC(F)(F)F)c(F)c2)cc2cnc(N[C@H]3CC[C@H](N(C)C)[C@@H](O)C3)nc21 [Compound 228, N-(4-(2-(((1S,3S,4S)-4-(dimethylamino)-3-hydroxycyclohexyl)amino)-8-isopropyl-7-oxo-7,8-dihydropyrido[2,3-d]pyrimidin-6-yl)-2-fluorophenyl)-3,3,3-trifluoropropane-1-sulfonamide]
19 | 9.74 | CC(C)n1c(=O)c(-c2ccc(NS(=O)(=O)c3ccccc3Cl)c(F)c2)nc2cnc(N[C@H]3CC[C@H](N(C)C)CC3)nc21 [Compound 167, 2-Chloro-N-(4-(2-(((1r,4r)-4-(dimethylamino)cyclohexyl)amino)-8-isopropyl-7-oxo-7,8-dihydropteridin-6-yl)-2-fluorophenyl)benzenesulfonamide]
20 | 9.70 | CC(C)n1c(=O)c(-c2ccc(NS(=O)(=O)CC3(C(F)(F)F)CCC3)c(F)c2)nc2cnc(N[C@H]3CC[C@H](N(C)C)CC3)nc21 [Example 261, N-[4-[2-[[4-(Dimethylamino)cyclohexyl]amino]-8-isopropyl-7-oxo-pteridin-6-yl]-2-fluoro-phenyl]-1-[1-(trifluoromethyl)cyclobutyl]methanesulfonamide]
21 | 9.68 | CC(C)n1c(=O)c(-c2ccc(NS(=O)(=O)Cc3ccccc3)c(F)c2)nc2cnc(N[C@@H]3CNC[C@@](C)(F)C3)nc21 [Compound 64, N-(2-Fluoro-4-(2-(((3S,5S)-5-fluoro-5-methylpiperidin-3-yl)amino)-8-isopropyl-7-oxo-7,8-dihydropteridin-6-yl)phenyl)-1-phenylmethanesulfonamide]
22 | 9.57 | CC(C)n1c(=O)c(-c2cc(F)c(NS(=O)(=O)Cc3cccnc3C(F)(F)F)c(F)c2F)cc2cnc(N[C@@H]3CNC[C@@H](F)C3)nc21 [Compound 139, N-(2,3,6-Trifluoro-4-(2-(((3S,5S)-5-fluoropiperidin-3-yl)amino)-8-isopropyl-7-oxo-7,8-dihydropyrido[2,3-d]pyrimidin-6-yl)phenyl)-1-(2-(trifluoromethyl)pyridin-3-yl)methanesulfonamide]
23 | 9.28 | Cc1nc(NS(=O)(=O)c2ccc(F)cc2)ccc1-c1cc2cnc(N[C@H]3CC[C@H](N(C)C)CC3)nc2n(C(C)C)c1=O [Compound 132, N-(5-(2-(((1r,4r)-4-(Dimethylamino)cyclohexyl)amino)-8-isopropyl-7-oxo-7,8-dihydropyrido[2,3-d]pyrimidin-6-yl)-6-methylpyridin-2-yl)-4-fluorobenzenesulfonamide]
24 | 8.68 | Cn1c(=O)c(-c2ccc(NS(=O)(=O)Cc3ccccc3)c(F)c2F)cc2cnc(N[C@@H]3CNC[C@@H](F)C3)nc21 [Compound 2, N-(2,3-Difluoro-4-(2-(((3S,5S)-5-fluoropiperidin-3-yl)amino)-8-methyl-7-oxo-7,8-dihydropyrido[2,3-d]pyrimidin-6-yl)phenyl)-1-phenylmethanesulfonamide]
